Experimental data as given in the supplement of paper PMC12592484.

What was measured:
Assay in all cases: drug sensitivity score (DSS2, normalised partial AUC of dose-response, 72 h CellTiter-Glo viability) (DSS (dimensionless)); higher = more sensitive (stronger growth inhibition / cytotoxicity); extreme values may be limits of the assay
[1] = test system: 22Rv1
In short: (§1)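 Viability of low-passage primary prostate cancer-associated fibroblasts, PF179T, WPMY-1, LNCaP and 22Rv1 cells was read by CellTiter-Glo 2.0 luminescence 72 h after seeding onto compounds pre-dispensed in 384-well plates at five doses over a 10,000-fold range. Readings were scaled between vehicle and positive-control wells. Sensitivity is reported as a drug sensitivity score from BREEZE, namely a partial area under the fitted logistic curve divided by the log of its upper asymptote, where higher means more sensitive.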

[2] = test system: CAF#4 (primary prostate cancer-associated fibroblasts of iCAF-like type)
In short: as §1

[3] = test system: CAF#2 (primary prostate cancer-associated fibroblasts of iCAF-like type)
In short: as §1

[4] = test system: LNCAP
In short: as §1

[5] = test system: CAF#1 (primary prostate cancer-associated fibroblasts of myCAF-like type)
In short: as §1

[6] = test system: WPMY-1
In short: as §1

[7] = test system: PF179T
In short: as §1

[8] = test system: CAF#3 (primary prostate cancer-associated fibroblasts of myCAF-like type)
In short: as §1

[9] = test system: CAF#7 (primary prostate cancer-associated fibroblasts of myCAF-like type)
In short: as §1

[10] = test system: CAF#5 (primary prostate cancer-associated fibroblasts of myCAF-like type)
In short: as §1

[11] = test system: CAF#6 (primary prostate cancer-associated fibroblasts of iCAF-like type)
In short: as §1

Compound | drug sensitivity score [1] | drug sensitivity score [2] | drug sensitivity score [3] | drug sensitivity score [4] | drug sensitivity score [5] | drug sensitivity score [6] | drug sensitivity score [7] | drug sensitivity score [8] | drug sensitivity score [9] | drug sensitivity score [10] | drug sensitivity score [11]
O=C(/C=C/c1cccc(S(=O)(=O)Nc2ccccc2)c1)NO [Belinostat] (tested concentration range 1-10000 nM) | 19.6 | 10 | 12.3 | 19.5 | 10 | 18.5 | 9.8 | 4.8 | 6.6 | 8.6 | 6.8
Nc1nc(Nc2ccc3c(c2)CC[C@@H](N2CCCC2)CC3)nn1-c1cc2c(nn1)-c1ccccc1CCC2 [Bemcentinib] (tested concentration range 1-10000 nM) | 5 | 1.8 | 3.2 | 5.4 | 2.5 | 8.5 | 5 | 8.6 | 2.7 | 4.1 | 5.7
N#CC(c1ccnc(OCc2ccc(CN3CCOCC3)cc2)n1)c1nc2ccccc2s1 (stereo not drawn) [Bentamapimod] (tested concentration range 1-10000 nM) | 1.8 | 3.4 | 2.6 | 5.2 | 1.7 | 2.8 | 0 | 0 | 0 | 0 | 0
C=C(c1ccc(C(=O)O)cc1)c1cc2c(cc1C)C(C)(C)CCC2(C)C [Bexarotene] (tested concentration range 1-10000 nM) | 1.6 | 3.7 | 10.1 | 0 | 4.7 | 2.1 | 10.2 | 0 | 1.2 | 3.8 | 0
CC(O)(CS(=O)(=O)c1ccc(F)cc1)C(=O)Nc1ccc(C#N)c(C(F)(F)F)c1 (stereo not drawn) [Bicalutamide] (tested concentration range 1-10000 nM) | 0.5 | 0 | 1.5 | 2.3 | 1.7 | 0 | 0.2 | 1.4 | 0.5 | 1.2 | 1.1
CCNC(=O)CCC/C=C\C[C@@H]1[C@@H](/C=C/[C@@H](O)CCc2ccccc2)[C@H](O)C[C@@H]1O [Bimatoprost] (tested concentration range 0.6-5500 nM) | 0 | 0 | 0 | 0 | 0 | 0 | 0 | 0.1 | 0 | 0 | 0
Cn1cnc2c(F)c(Nc3ccc(Br)cc3F)c(C(=O)NOCCO)cc21 [Binimetinib] (tested concentration range 0.1-1000 nM) | 8.7 | 0 | 2.2 | 0 | 0 | 0.9 | 0 | 0 | 0.2 | 0.8 | 0
Cc1sc2c(c1C)C(c1ccc(Cl)cc1)=N[C@@H](CC(=O)Nc1ccc(O)cc1)c1nnc(C)n1-2 [Birabresib] (tested concentration range 1-10000 nM) | 13.4 | 3.4 | 9.9 | 19.8 | 9.4 | 11.9 | 2.8 | 11.8 | 3 | 3.1 | 5.1
CC[C@H](NC(=O)[C@H](C)NC)C(=O)N1C[C@@H](O)C[C@H]1Cc1c(-c2[nH]c3cc(F)ccc3c2C[C@@H]2C[C@H](O)CN2C(=O)[C@H](CC)NC(=O)[C@H](C)NC)[nH]c2cc(F)ccc12 [Birinapant] (tested concentration range 0.1-1000 nM) | 0 | 0 | 0 | 0.1 | 0 | 0 | 0 | 0 | 0 | 0 | 0.8
Cc1c(N)nc([C@H](CC(N)=O)NC[C@H](N)C(N)=O)nc1C(=O)N[C@H](C(=O)N[C@H](C)[C@@H](O)[C@H](C)C(=O)N[C@H](C(=O)NCCc1nc(-c2nc(C(=O)NCCC[S+](C)C)cs2)cs1)[C@@H](C)O)[C@@H](OC1OC(CO)C(O)C(O)C1OC1OC(CO)C(O)C(OC(N)=O)C1O)c1cnc[nH]1 (stereo partly drawn) [Bleomycin] (tested concentration range 1-10000 nM) | 3.7 | 5.7 | 3.9 | 7.5 | 0.6 | 0.4 | 3.3 | 5.7 | 9.7 | 3.2 | 7.7
CC(C)C[C@H](NC(=O)[C@H](Cc1ccccc1)NC(=O)c1cnccn1)B(O)O [Bortezomib] (tested concentration range 0.1-1000 nM) | 24.9 | 20 | 30.1 | 28.8 | 23.9 | 30.6 | 20.9 | 26.9 | 24.3 | 28.1 | 23.7
COc1cc(Nc2c(C#N)cnc3cc(OCCCN4CCN(C)CC4)c(OC)cc23)c(Cl)cc1Cl [Bosutinib] (tested concentration range 1-10000 nM) | 7.7 | 5.8 | 8.5 | 10.1 | 7.4 | 9.2 | 4.8 | 6.6 | 4.1 | 6.2 | 5.1
COc1cc(N2CCC(N3CCN(C)CC3)CC2)ccc1Nc1ncc(Cl)c(Nc2ccccc2P(C)(C)=O)n1 [Brigatinib] (tested concentration range 0.1-1000 nM) | 1.7 | 2.1 | 3.5 | 0 | 4 | 2.4 | 2.2 | 3.1 | 3 | 3.6 | 3.9
Cc1cc2c(F)c(Oc3ncnn4cc(OC[C@@H](C)O)c(C)c34)ccc2[nH]1 [Brivanib] (tested concentration range 0.1-1000 nM) | 0 | 0 | 0 | 1.2 | 0 | 0 | 0 | 0 | 0 | 0 | 0
CCC/C=C/C=C/C(=O)O[C@H]1/C(=C/C(=O)OC)C[C@H]2C[C@H]([C@@H](C)O)OC(=O)C[C@H](O)C[C@@H]3C[C@H](OC(C)=O)C(C)(C)[C@](O)(C[C@@H]4C/C(=C/C(=O)OC)C[C@H](/C=C/C(C)(C)[C@]1(O)O2)O4)O3 [Bryostatin 1] (tested concentration range 0-100 nM) | 0 | 0.5 | 3.4 | 0.1 | 4.2 | 1.3 | 0 | 0.6 | 4 | 3 | 2.6
Cc1noc2c1-c1ccccc1C(c1ccc(Cl)cc1)=N[C@H]2CC(N)=O [CPI-0610] (tested concentration range 1-10000 nM) | 9.2 | 1.4 | 6.5 | 13 | 7 | 7.9 | 4.1 | 8.4 | 1.8 | 4.1 | 4.5
CO[C@H]1C(=O)[C@]2(C)[C@@H](OC)C[C@H]3OC[C@@]3(OC(C)=O)[C@H]2[C@H](OC(=O)c2ccccc2)[C@]2(O)C[C@H](OC(=O)[C@H](O)[C@@H](NC(=O)OC(C)(C)C)c3ccccc3)C(C)=C1C2(C)C [Cabazitaxel] (tested concentration range 0.1-1000 nM) | 26.5 | 13 | 18.1 | 35.6 | 14.6 | 28.2 | 22.2 | 14.2 | 26.4 | 15.8 | 18.4
COc1cc2nccc(Oc3ccc(NC(=O)C4(C(=O)Nc5ccc(F)cc5)CC4)cc3)c2cc1OC [Cabozantinib] (tested concentration range 0.1-1000 nM) | 0.3 | 3.9 | 7.9 | 7.1 | 4.6 | 3.8 | 4.1 | 5.4 | 5.6 | 7.4 | 3.7
CCCCCOC(=O)Nc1nc(=O)n([C@@H]2O[C@H](C)[C@@H](O)[C@H]2O)cc1F [Capecitabine] (tested concentration range 1-10000 nM) | 0 | 0 | 0 | 0 | 0 | 0 | 0 | 0 | 0 | 0 | 0
NC1(C(=O)N[C@@H](CCO)c2ccc(Cl)cc2)CCN(c2nc[nH]c3nccc2-3)CC1 [Capivasertib] (tested concentration range 1-10000 nM) | 7.2 | 0.3 | 4.1 | 23.5 | 4.5 | 3 | 4.6 | 0 | 2.4 | 3.6 | 2.7
CNC(=O)c1ccc(-c2cnc3ncc(Cc4ccc5ncccc5c4)n3n2)cc1F [Capmatinib] (tested concentration range 0.1-1000 nM) | 0 | 0 | 3.1 | 0 | 0 | 0.1 | 0.4 | 0 | 0 | 0 | 0
O=C(O)C1(C(=O)O)CCC1.[NH2-].[NH2-].[Pt+2] [Carboplatin] (tested concentration range 10-100000 nM) | 6.7 | 5.5 | 8.3 | 5.5 | 4.8 | 7.7 | 6 | 2.8 | 0.4 | 5.5 | 1.6
CC(C)C[C@H](NC(=O)[C@H](CCc1ccccc1)NC(=O)CN1CCOCC1)C(=O)N[C@@H](Cc1ccccc1)C(=O)N[C@@H](CC(C)C)C(=O)[C@@]1(C)CO1 [Carfilzomib] (tested concentration range 0.1-1000 nM) | 27.5 | 13.3 | 18.9 | 27.2 | 17.5 | 31.5 | 20.3 | 17.1 | 16.7 | 22 | 15.9
